From US6906205B2, “Spiro and dispiro 1,2,4-trioxolane antimalarials” (Medicines for Malaria Venture MMV, priority 2002, dated 2005)
Values after ≈ are worked out from the molar mass of the structure shown.

These molecules were tested on P. falciparum K1 strain (Thailand resistant to chloroquine) (assay: semiautomated microdilution assay, [3H]-hypoxanthine incorporation, K1 strain). Settings: K1 strain, 72 h incubation.
Format: cell-based, Plasmodium falciparum
Summary of the method: (§1)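 Asynchronous stock cultures → intraerythrocytic forms; semiautomated microdilution; IC50 by logit regression.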

SMILES	IC50 (ng/ml) K1
O=C(O)CCC(=O)N[C@H]1CC[C@]2(CC1)OOC1(O2)C2CC3CC(C2)CC1C3 (stereo partly shown) [OZ196]	>10/>10 ng/ml
c1ccc2c(c1)OCCC21OOC2(O1)C1CC3CC(C1)CC2C3 (stereo not shown) [OZ134]	0.88 ng/mL (≈ 2.8 nM)
O=C1c2ccccc2C(=O)N1C[C@H]1CC[C@@]2(CC1)OOC1(O2)C2CC3CC(C2)CC1C3 (stereo partly shown) [OZ167]	6.7 ng/mL (≈ 15.8 nM)
NC(=O)CNC(=O)C[C@H]1CC[C@]2(CC1)OO[C@]1(O2)C2CC3CC(C2)CC1C3 [OZ306]	3.9 ng/mL (≈ 10.3 nM)
NNC(=O)C[C@H]1CC[C@]2(CC1)OO[C@]1(O2)C2CC3CC(C2)CC1C3 [OZ340]	4.9 ng/mL (≈ 14.6 nM)

These molecules were tested on P. falciparum NF54 strain (sensitive to standard antimalarials) (assay: semiautomated microdilution assay, [3H]-hypoxanthine incorporation, NF54 strain). Settings: NF54 strain, 72 h incubation.
Format: cell-based, Plasmodium falciparum
Summary of the method: as §1

SMILES	IC50 (ng/ml) NF54
O=C(O)CCC(=O)N[C@H]1CC[C@]2(CC1)OOC1(O2)C2CC3CC(C2)CC1C3 (stereo partly shown) [OZ196]	>10/>10 ng/ml
c1ccc2c(c1)OCCC21OOC2(O1)C1CC3CC(C1)CC2C3 (stereo not shown) [OZ134]	1.1 ng/mL (≈ 3.5 nM)
O=C1c2ccccc2C(=O)N1C[C@H]1CC[C@@]2(CC1)OOC1(O2)C2CC3CC(C2)CC1C3 (stereo partly shown) [OZ167]	> 10 ng/mL
NC(=O)CNC(=O)C[C@H]1CC[C@]2(CC1)OO[C@]1(O2)C2CC3CC(C2)CC1C3 [OZ306]	3.6 ng/mL (≈ 9.51 nM)
NNC(=O)C[C@H]1CC[C@]2(CC1)OO[C@]1(O2)C2CC3CC(C2)CC1C3 [OZ340]	2.9 ng/mL (≈ 8.62 nM)

Each molecule was assayed on ANKA strain of P. berghei (assay: single dose STI in vivo screen in infected mice). Settings: percent reduction in parasitemia day 3 post-infection; single 3 mg/kg po in SSV.
Design: species or system Plasmodium berghei
Summary of the method: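 Groups of 3-5 Moro SPF or NMRI mice infected with the ANKA strain of P. berghei received a single dose of trioxolane on day one post-infection. The compound was given in 3% ethanol and 7% Tween 80 or in SSV (0.5% w/v CMC, 0.5% v/v benzyl alcohol, 0.4% v/v Tween 80, 0.9% w/v sodium chloride in water). Antimalarial activity was scored as percent reduction in parasitemia on day three and as survival time versus untreated controls. Survival to day 30 counted as cure.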

SMILES	Activity (%) 3 mg/kg SSV po [%]
NC(=O)CNC(=O)C[C@H]1CC[C@]2(CC1)OO[C@]1(O2)C2CC3CC(C2)CC1C3 [OZ306]	87
NNC(=O)C[C@H]1CC[C@]2(CC1)OO[C@]1(O2)C2CC3CC(C2)CC1C3 [OZ340]	36

Same assay, conditions: percent reduction in parasitemia day 3 post-infection; single 10 mg/kg po in 3% ethanol and 7% Tween 80; mice

SMILES	Activity (%) po [%]
O=C(O)CCC(=O)N[C@H]1CC[C@]2(CC1)OOC1(O2)C2CC3CC(C2)CC1C3 (stereo partly shown) [OZ196]	10
c1ccc2c(c1)OCCC21OOC2(O1)C1CC3CC(C1)CC2C3 (stereo not shown) [OZ134]	72
O=C1c2ccccc2C(=O)N1C[C@H]1CC[C@@]2(CC1)OOC1(O2)C2CC3CC(C2)CC1C3 (stereo partly shown) [OZ167]	0

Same assay, conditions: percent reduction in parasitemia day 3 post-infection; single 10 mg/kg po in SSV

SMILES	Activity (%) 10 mg/kg SSV po [%]
NC(=O)CNC(=O)C[C@H]1CC[C@]2(CC1)OO[C@]1(O2)C2CC3CC(C2)CC1C3 [OZ306]	99.58
NNC(=O)C[C@H]1CC[C@]2(CC1)OO[C@]1(O2)C2CC3CC(C2)CC1C3 [OZ340]	93

Same assay, conditions: percent reduction in parasitemia day 3 post-infection; single 10 mg/kg sc in 3% ethanol and 7% Tween 80; mice

SMILES	Activity (%) sc [%]
O=C(O)CCC(=O)N[C@H]1CC[C@]2(CC1)OOC1(O2)C2CC3CC(C2)CC1C3 (stereo partly shown) [OZ196]	17
c1ccc2c(c1)OCCC21OOC2(O1)C1CC3CC(C1)CC2C3 (stereo not shown) [OZ134]	99.95
O=C1c2ccccc2C(=O)N1C[C@H]1CC[C@@]2(CC1)OOC1(O2)C2CC3CC(C2)CC1C3 (stereo partly shown) [OZ167]	97

Same assay, conditions: percent reduction in parasitemia day 3 post-infection; single po dose in standard suspending vehicle (SSV); mice

SMILES	Activity (%) SSVpo [%]
O=C(O)CCC(=O)N[C@H]1CC[C@]2(CC1)OOC1(O2)C2CC3CC(C2)CC1C3 (stereo partly shown) [OZ196]	0
c1ccc2c(c1)OCCC21OOC2(O1)C1CC3CC(C1)CC2C3 (stereo not shown) [OZ134]	27
O=C1c2ccccc2C(=O)N1C[C@H]1CC[C@@]2(CC1)OOC1(O2)C2CC3CC(C2)CC1C3 (stereo partly shown) [OZ167]	6

Same assay, conditions: single 10 mg/kg po in 3% ethanol and 7% Tween 80; untreated control 5.6 ± 0.3

SMILES	Survival (days) po [days]
O=C(O)CCC(=O)N[C@H]1CC[C@]2(CC1)OOC1(O2)C2CC3CC(C2)CC1C3 (stereo partly shown) [OZ196]	6.0
c1ccc2c(c1)OCCC21OOC2(O1)C1CC3CC(C1)CC2C3 (stereo not shown) [OZ134]	6.3
O=C1c2ccccc2C(=O)N1C[C@H]1CC[C@@]2(CC1)OOC1(O2)C2CC3CC(C2)CC1C3 (stereo partly shown) [OZ167]	6.0

Same assay, conditions: single 10 mg/kg po in SSV

SMILES	Survival (days) 10 mg/kg SSV po [days]
NC(=O)CNC(=O)C[C@H]1CC[C@]2(CC1)OO[C@]1(O2)C2CC3CC(C2)CC1C3 [OZ306]	9.2
NNC(=O)C[C@H]1CC[C@]2(CC1)OO[C@]1(O2)C2CC3CC(C2)CC1C3 [OZ340]	9.2

Same assay, conditions: single 10 mg/kg sc in 3% ethanol and 7% Tween 80; untreated control 5.6 ± 0.3

SMILES	Survival (days) sc [days]
O=C(O)CCC(=O)N[C@H]1CC[C@]2(CC1)OOC1(O2)C2CC3CC(C2)CC1C3 (stereo partly shown) [OZ196]	5.7
c1ccc2c(c1)OCCC21OOC2(O1)C1CC3CC(C1)CC2C3 (stereo not shown) [OZ134]	15.3
O=C1c2ccccc2C(=O)N1C[C@H]1CC[C@@]2(CC1)OOC1(O2)C2CC3CC(C2)CC1C3 (stereo partly shown) [OZ167]	7.3

Same assay, conditions: single po dose in SSV; untreated control 5.6 ± 0.3

SMILES	Survival (days) SSVpo [days]
O=C(O)CCC(=O)N[C@H]1CC[C@]2(CC1)OOC1(O2)C2CC3CC(C2)CC1C3 (stereo partly shown) [OZ196]	5.3
c1ccc2c(c1)OCCC21OOC2(O1)C1CC3CC(C1)CC2C3 (stereo not shown) [OZ134]	6.0
O=C1c2ccccc2C(=O)N1C[C@H]1CC[C@@]2(CC1)OOC1(O2)C2CC3CC(C2)CC1C3 (stereo partly shown) [OZ167]	6.0
